Measured values reported in US8318724B2, “Small molecule inhibitors of MRP1 and other multidrug transporters” (The Cleveland Clinic Foundation, priority 2004, dated 2012).

Legend:
MRP1 [1] = biological target: T1, MRP1 (Homo sapiens, UniProt P33527); assay: Sensitization to doxorubicin of cells expressing multidrug transporter MRP1; format: cell-based; details: ratio of LD50
T1 construct: MCF7/VP breast cancer cells (24), which have amplified and overexpressed MRP1, but negligible Pgp expression; endogenous in cells; host or cells: MCF7/VP (MCF7/VP clone 14) breast cancer cells
T1 sequence (P33527 whole entry): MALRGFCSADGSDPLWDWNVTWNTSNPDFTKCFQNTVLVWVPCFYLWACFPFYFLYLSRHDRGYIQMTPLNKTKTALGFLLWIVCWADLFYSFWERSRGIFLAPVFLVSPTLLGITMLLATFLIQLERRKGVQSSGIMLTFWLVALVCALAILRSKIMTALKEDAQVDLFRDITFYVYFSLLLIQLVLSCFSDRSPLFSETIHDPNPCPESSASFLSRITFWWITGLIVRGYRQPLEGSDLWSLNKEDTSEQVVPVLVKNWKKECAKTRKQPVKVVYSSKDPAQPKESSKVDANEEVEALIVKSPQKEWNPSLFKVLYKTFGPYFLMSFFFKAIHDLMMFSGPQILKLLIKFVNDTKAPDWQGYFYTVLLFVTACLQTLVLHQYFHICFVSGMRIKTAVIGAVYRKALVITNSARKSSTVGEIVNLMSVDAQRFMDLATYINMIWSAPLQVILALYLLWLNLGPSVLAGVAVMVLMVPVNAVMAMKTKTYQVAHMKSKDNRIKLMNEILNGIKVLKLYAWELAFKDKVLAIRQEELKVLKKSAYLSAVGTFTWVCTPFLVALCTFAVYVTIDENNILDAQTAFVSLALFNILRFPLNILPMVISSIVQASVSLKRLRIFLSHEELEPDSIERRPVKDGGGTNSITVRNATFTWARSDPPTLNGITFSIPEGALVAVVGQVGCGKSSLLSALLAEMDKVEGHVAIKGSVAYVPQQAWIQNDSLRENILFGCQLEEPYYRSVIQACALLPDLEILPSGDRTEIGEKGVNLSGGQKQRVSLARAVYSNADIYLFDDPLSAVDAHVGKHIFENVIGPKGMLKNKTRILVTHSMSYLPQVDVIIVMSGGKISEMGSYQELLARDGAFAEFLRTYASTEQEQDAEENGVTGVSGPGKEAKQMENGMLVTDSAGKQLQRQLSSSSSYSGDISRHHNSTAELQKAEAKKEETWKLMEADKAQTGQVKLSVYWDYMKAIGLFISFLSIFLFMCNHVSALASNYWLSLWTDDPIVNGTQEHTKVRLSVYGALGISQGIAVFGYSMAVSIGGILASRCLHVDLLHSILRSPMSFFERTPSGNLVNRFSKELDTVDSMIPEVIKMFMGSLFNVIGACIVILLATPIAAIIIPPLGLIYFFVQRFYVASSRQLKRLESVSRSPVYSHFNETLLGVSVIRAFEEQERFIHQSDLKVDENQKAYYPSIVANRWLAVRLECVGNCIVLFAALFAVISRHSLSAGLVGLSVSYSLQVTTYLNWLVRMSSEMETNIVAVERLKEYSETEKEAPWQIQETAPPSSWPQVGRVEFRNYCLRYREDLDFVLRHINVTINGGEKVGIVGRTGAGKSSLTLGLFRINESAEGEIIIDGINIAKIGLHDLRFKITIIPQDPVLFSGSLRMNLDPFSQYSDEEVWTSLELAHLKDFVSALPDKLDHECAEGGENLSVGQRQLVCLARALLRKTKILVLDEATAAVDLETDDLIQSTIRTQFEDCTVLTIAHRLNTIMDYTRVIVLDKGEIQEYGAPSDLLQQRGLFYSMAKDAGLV
Protocol: (§1) Fold of sensitization is calculated as a ratio of LD50 in the presence and in the absence of the inhibitor compound (see FIG. 6).
(§2) Fold of sensitization again is calculated as the ratio of LD50 in the presence and in the absence of the inhibitor compound (see FIG. 6).

MDR1 = MDR1 (Homo sapiens, UniProt P08183)
Chain of MDR1 (P08183 whole entry): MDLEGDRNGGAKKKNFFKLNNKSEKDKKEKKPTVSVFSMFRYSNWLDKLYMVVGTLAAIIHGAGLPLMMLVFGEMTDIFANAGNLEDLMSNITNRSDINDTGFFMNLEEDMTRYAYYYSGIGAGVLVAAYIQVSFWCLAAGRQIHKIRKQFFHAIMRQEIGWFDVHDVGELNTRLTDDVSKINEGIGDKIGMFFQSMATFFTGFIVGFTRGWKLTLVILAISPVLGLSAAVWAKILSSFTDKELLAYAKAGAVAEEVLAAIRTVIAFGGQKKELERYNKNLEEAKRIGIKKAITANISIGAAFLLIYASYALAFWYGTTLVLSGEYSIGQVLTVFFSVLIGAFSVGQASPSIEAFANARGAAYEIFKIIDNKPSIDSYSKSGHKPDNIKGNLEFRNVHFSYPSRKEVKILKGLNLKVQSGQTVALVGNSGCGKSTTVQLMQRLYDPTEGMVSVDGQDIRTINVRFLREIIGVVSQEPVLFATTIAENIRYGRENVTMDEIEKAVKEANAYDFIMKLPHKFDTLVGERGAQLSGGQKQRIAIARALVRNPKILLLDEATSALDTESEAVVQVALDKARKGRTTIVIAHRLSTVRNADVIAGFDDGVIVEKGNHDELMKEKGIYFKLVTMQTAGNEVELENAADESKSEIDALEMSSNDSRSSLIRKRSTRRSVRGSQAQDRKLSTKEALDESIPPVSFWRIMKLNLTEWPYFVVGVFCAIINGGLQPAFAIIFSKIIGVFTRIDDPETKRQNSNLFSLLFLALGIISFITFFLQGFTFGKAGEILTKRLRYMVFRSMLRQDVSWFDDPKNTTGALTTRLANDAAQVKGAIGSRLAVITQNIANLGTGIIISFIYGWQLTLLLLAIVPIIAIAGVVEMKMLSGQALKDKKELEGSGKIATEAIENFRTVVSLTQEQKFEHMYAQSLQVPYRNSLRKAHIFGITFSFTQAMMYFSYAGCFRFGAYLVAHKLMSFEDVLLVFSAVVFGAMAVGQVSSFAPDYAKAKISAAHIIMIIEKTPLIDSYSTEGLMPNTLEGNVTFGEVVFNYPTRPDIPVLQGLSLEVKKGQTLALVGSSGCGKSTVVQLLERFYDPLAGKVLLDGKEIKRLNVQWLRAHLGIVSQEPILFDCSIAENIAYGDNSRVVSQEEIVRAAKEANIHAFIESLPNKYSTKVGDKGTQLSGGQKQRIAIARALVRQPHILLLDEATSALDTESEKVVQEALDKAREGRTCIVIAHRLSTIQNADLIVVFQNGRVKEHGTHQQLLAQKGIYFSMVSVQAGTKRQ
Protocol: as §1, §2

MDR3 = assay: Sensitization to doxorubicin of cells expressing multidrug transporter MDR3; format: cell-based; details: ratio of LD50
Protocol: as §1, §2

MCF7/VP cells = assay: Sensitization of MRP1-expressing MCF7/VP cells to chemotherapeutic drugs (methylene blue assay); format: cell-based; details: for folds of sensitization of MCF7/VP cells to cisplatin: cisplatin is not an MRP1 substrate; for folds of sensitization of MCF7/VP cells to doxorubicin / folds of sensitization of MCF7/VP cells to etoposide / folds of sensitization of MCF7/VP cells to vincristine: ratio of LD50 in the presence and in the absence of the compound
Protocol: Cells in 96-well plates (5×10^3 per well) were incubated with different concentrations of vincristine in the presence of 5 μM of the candidate compounds for 3 days. Cell numbers then were estimated using methylene blue assay. […] Verapamil (10 μM) was used as control.
FIG. 6 illustrates the effect of the identified inhibitor compounds on cell sensitivity to doxorubicin and vincristine. Cells (with or without MRP1 expression) were incubated 24 hours with the indicated concentrations of vincristine or doxorubicin followed by incubation for additional 48 hours in drugfree media. Cell numbers were quantified by standard methylene blue assay.
as §1
FIG. 8 illustrates the effects of the identified inhibitor compounds on sensitivity of MRP1-positive and MRP1-negative cells to vincristine. Fold of sensitization again is calculated as the ratio of LD50 in the presence and in the absence of the inhibitor compound (see FIG. 6).
FIG. 9 illustrates the effects of the identified inhibitor compounds on sensitivity of MRP1-positive and MRP1-negative cells to etoposide. Fold of sensitization again is calculated as the ratio of LD50 in the presence and in the absence of the inhibitor compound (see FIG. 6).
FIG. 10 illustrates the effects of the identified inhibitor compounds on sensitivity of MRP1-positive and MRP1-negative cells to taxol and cisplatin. Fold of sensitization again is calculated as the ratio of LD50 in the presence and in the absence of the inhibitor compound (see FIG. 6).

MRP2 = MRP2 (Homo sapiens, UniProt Q92887); assay: Sensitization to doxorubicin of cells expressing multidrug transporter MRP2; format: cell-based; details: ratio of LD50
Chain of MRP2 (Q92887 whole entry, species assumed): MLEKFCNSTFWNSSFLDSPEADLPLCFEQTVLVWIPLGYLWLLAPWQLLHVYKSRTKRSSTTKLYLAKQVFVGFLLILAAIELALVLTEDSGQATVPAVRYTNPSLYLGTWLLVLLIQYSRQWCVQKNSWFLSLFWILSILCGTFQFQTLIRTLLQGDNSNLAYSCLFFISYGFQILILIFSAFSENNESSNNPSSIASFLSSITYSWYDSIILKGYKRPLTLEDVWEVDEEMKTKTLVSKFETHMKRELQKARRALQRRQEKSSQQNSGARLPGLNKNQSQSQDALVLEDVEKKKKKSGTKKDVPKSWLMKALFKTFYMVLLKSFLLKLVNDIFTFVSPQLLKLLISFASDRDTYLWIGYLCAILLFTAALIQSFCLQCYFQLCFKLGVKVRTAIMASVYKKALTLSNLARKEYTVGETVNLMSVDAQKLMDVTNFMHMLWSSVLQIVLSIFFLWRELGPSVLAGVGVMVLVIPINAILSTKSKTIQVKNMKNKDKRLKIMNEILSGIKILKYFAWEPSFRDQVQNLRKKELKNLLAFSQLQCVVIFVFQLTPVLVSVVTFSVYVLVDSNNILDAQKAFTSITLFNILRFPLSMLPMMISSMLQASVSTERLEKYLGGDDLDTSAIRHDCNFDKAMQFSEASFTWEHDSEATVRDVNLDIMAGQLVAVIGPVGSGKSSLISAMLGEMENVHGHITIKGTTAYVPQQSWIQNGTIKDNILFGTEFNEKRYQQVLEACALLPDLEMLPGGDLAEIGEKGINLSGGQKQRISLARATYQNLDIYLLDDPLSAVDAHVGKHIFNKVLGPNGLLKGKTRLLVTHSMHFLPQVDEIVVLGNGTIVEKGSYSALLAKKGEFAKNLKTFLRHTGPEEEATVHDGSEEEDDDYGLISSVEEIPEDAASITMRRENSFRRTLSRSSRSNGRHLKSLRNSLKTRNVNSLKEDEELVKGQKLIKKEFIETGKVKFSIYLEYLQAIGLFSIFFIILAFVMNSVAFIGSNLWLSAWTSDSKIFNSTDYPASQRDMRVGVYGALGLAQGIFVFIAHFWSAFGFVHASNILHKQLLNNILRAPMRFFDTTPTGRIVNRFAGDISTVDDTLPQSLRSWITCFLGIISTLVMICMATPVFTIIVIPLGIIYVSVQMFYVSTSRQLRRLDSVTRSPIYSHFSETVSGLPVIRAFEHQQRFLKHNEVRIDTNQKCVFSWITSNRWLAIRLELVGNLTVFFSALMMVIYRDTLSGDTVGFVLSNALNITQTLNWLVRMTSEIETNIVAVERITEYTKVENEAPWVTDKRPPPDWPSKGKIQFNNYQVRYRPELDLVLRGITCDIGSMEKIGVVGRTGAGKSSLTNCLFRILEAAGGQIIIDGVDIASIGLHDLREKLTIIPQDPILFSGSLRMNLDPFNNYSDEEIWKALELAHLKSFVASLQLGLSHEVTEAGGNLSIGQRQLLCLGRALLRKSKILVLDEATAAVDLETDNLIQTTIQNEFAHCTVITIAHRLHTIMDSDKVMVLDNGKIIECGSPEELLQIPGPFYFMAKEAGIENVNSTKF
Protocol: as §1, §2

MRP1 [2] = biological target: T1, MRP1; assay: Dose dependence of drug sensitization effect, 4H10 vs MK571 (FIG. 14); format: cell-based; details: three different lots of 4H10
MRP1 [3] = biological target: T1, MRP1; assay: Daunorubicin retention / efflux assay (FIG. 12); format: cell-based; details: daunorubicin 2 hours with compound, then 1 hour drug-free medium; retained daunorubicin
Protocol: FIG. 12 classifies the identified inhibitor compounds according to their strength as inhibitors of […] by MRP1. Cells were treated with daunorubicin in the presence of a test compound or a control for 2 hours, followed by incubation in fresh drug-free medium for 1 hour. Retained daunorubicin levels were measured to determine the effect of the inhibitor compounds on efflux activities.

[4] = In vivo toxicity, mouse weight after single i.p. injection (FIG. 19); details: up to 100 mg/kg
Excerpt: In particular, one parameter for testing toxicity is a weight loss of greater the […] of the body weight of a test mouse.

NB = assay: In vivo efficacy in mouse model of NB in combination with chemotherapeutic agents (FIG. 20)
Excerpt: The test was a clinically relevant mouse model of NB that closely reflects the human disease (n=10, unless otherwise noted).

NB cells = assay: Direct toxicity toward NB cell lines (FIG. 18); format: cell-based; details: different lots of compound
GL15 and 8 MG cell lines = details: both glioma cell lines; cited from earlier work

SMILES	folds of sensitization of doxorubicin, cells expressing MRP1 (MRP1 [1]) [folds]	folds of sensitization of doxorubicin, cells expressing MDR1 (MDR1) [folds]	folds of sensitization of doxorubicin, cells expressing MDR3 (MDR3) [folds]	folds of sensitization of MCF7/VP cells to cisplatin (MCF7/VP cells) [folds]	folds of sensitization of MCF7/VP cells to doxorubicin (MCF7/VP cells) [folds]	folds of sensitization of MCF7/VP cells to etoposide (MCF7/VP cells) [folds]	folds of sensitization of MCF7/VP cells to vincristine (MCF7/VP cells) [folds]	folds of sensitization of doxorubicin, cells expressing MRP2 (MRP2) [folds]	concentrations showing drug sensitization effect (MRP1 [2])	strength as inhibitor of daunorubicin efflux by MRP1 (MRP1 [3])	effect on mouse weight ([4]; 30 days)	in vivo toxicity ([4]; 30 days of observation)	effectiveness compared with BSO (NB)	direct toxicity against NB cells (NB cells)	accumulation of vincristine and etoposide (GL15 and 8 MG cell lines)
CCN(CC)CCCNC(=O)c1cnn2c(C(F)(F)F)cc(-c3ccc(C)cc3)nc12 [Compound 4E10]	3.7	2.0	0.6	1.25	3.2	27	12	7	–	–	–	–	–	–	–
O=C(NCCN1CCOCC1)c1cnn2c(-c3ccccc3)cc(-c3ccccc3)nc12 [Compound 4E11]	3.9	4.2	0.7	1.1	2.7	34	10.5	6.5	–	–	–	–	–	–	–
CC(Sc1nnc(-c2ccco2)n1-c1ccccc1)C(=O)NC(c1ccccc1)c1ccccc1 (stereo not shown) [Compound 4G05]	1.75	4.6	2.4	1.1	1.6	2	3	1.5	–	–	–	–	–	–	–
O=C(NCCCN1CCOCC1)c1cnn2c(-c3ccccc3)cc(-c3ccccc3)nc12 [Compound 4H10]	4.1	4.5	0.9	1.2	3.8	58	14.2	3.3	submicromolar	most potent inhibitor	did not adversely affect mouse weight	lack of in vivo toxicity	much more effective than BSO	no direct toxicity	–
C=CCSc1nnc2n(-c3ccccc3)c(=O)c3c4c(sc3n12)CCC4 [Compound 9C06]	3.3	3.7	0.4	1.5	3.3	12	16	4.3	–	–	–	–	–	–	–
c1ccc(-c2cn3c4ccccc4nc3n2CCN2CCCCC2)cc1 [Compound 14C08]	3.0	3.7	0.6	1.05	4.0	18	14	1.3	–	–	–	–	–	–	–
Cc1nnc(SCC(=O)N/N=C/c2cccc3cccnc23)n1-c1ccccc1 [Compound 17A08]	1.1	2	1.3	1.1	3.6	5	3	1.4	–	–	–	–	–	–	–
COc1ccc2c(c1)c(CC(=O)O)c(C)n2C(=O)c1ccc(Cl)cc1 [Indomethacin]	–	–	–	–	–	–	–	–	–	–	–	–	–	–	increased the accumulation
CCCN(CCC)S(=O)(=O)c1ccc(C(=O)O)cc1 [probenecid]	–	–	–	–	–	–	–	–	–	–	–	–	–	–	increased the accumulation
